Assay results as given in patent US10227331B2 (priority 2015, dated 2019).

Experiments:
[1] = tested on: Escherichia coli expressing NDM-1 (CLB30005, CLB30016); type: cell-based; conditions: NDM-1 (CLB30016), with imipenem 1 μg/ml, 95% inhibition of bacterial growth
Outline: (§1)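 Colonies from overnight 35 °C blood-agar cultures were suspended in saline, diluted 1:100 into 1.1× CAMHB and exposed to test compound with or without imipenem at 1 μg/ml. After 22–24 h at 35 °C, absorbance was read to find the concentration restoring imipenem susceptibility.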

[2] = tested on: Klebsiella pneumoniae expressing VIM-1 (IHMA599644); type: cell-based; conditions: VIM-1 (IHMA599644), with imipenem 1 μg/ml, 95% inhibition of bacterial growth
Outline: as §1

[3] = tested on: Serratia marcescens expressing IMP-1 (CL5741); type: cell-based; conditions: IMP-1 (CL5741), with imipenem 1 μg/ml, 95% inhibition of bacterial growth
Outline: as §1

[4] = tested on: P. aeruginosa expressing IMP-1, efflux+ (MB9798); type: cell-based, Pseudomonas aeruginosa; conditions: for P. aeruginosa expressing IMP-1, efflux+ (MB9798) MITC95: imipenem at 2 μg/mL, in the presence of a class A, C, D serine β-lactamase inhibitor closely related to relebactam; for Efflux ratio: ratio MITC95 PA_9798/MITC95 PA_9799
Description: (§2) The strain background is Pseudomonas aeruginosa PAO1.

NDM-1 = NDM-1 (Klebsiella pneumoniae, UniProt C7C422); experiment: biochemical; type: biochemical; conditions: CCF2-FA substrate, 2 hours at 25° C; read-out: NDM-1 IC50
Outline: (§3)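 Inhibitor was mixed with the metallo-β-lactamase and CCF2-FA. After 2 hours at 25° C, fluorescence of the coumarin–fluorescein cephalosporin substrate was read. IC50 was calculated with a 4-parameter fit.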

IMP-1 = IMP-1 (Serratia marcescens, UniProt P52699); experiment: biochemical; type: biochemical; conditions: CCF2-FA substrate, 2 hours at 25° C; read-out: IMP-1 IC50
Outline: as §3

VIM-1 = VIM-1 (Pseudomonas aeruginosa (strain ATCC 15692 / DSM 22644 / CIP 104116 / JCM 14847 / LMG 12228 / 1C / PRS 101 / PAO1), UniProt A0A0F7KYQ8); experiment: biochemical; conditions: CCF2-FA substrate, 2 hours at 25° C
Outline: as §3

[5] = tested on: P. aeruginosa expressing IMP-1, efflux− (MB9799); experiment: Efflux: concentration of MBL inhibitor which restores susceptibility to imipenem; type: cell-based, Pseudomonas aeruginosa; conditions: imipenem at 2 μg/mL, in the presence of a class A, C, D serine β-lactamase inhibitor closely related to relebactam
Description: as §2

IMP-1, sequence (P52699 whole entry, looked up, species assumed): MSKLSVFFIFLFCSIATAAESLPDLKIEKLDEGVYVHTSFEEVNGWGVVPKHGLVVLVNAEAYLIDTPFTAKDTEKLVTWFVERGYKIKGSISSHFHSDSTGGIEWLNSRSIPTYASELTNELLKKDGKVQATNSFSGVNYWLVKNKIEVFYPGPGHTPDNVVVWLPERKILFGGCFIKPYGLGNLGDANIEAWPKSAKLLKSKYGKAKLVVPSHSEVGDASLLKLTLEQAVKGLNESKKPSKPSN
NDM-1, sequence (C7C422 whole entry, looked up, species assumed): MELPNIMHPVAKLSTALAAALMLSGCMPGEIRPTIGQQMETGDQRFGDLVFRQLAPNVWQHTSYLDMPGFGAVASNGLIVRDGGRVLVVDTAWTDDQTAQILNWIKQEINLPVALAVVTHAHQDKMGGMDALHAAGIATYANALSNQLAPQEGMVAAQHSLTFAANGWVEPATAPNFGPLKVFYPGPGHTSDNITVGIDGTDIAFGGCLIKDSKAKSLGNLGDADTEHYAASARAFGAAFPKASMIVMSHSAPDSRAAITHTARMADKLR

Structure (SMILES)	Escherichia coli MITC95 [1] [µM]	Klebsiella pneumoniae MITC95 [2] [µM]	Serratia marcescens MITC95 [3] [µM]	P. aeruginosa expressing IMP-1, efflux+ (MB9798) MITC95 [4] [µM]	Efflux ratio [4]	IC50 (NDM-1) [nM]	IC50 (IMP-1) [nM]	IC50 (VIM-1) [nM]	P. aeruginosa expressing IMP-1, efflux− (MB9799) MITC95 [5] [µM]
NCCNC(=O)c1ccccc1-c1ccc(S(=O)(=O)CCN)c(S(N)(=O)=O)c1-c1nn[nH]n1 [Example 342, N-(2-Aminoethyl)-4′-((2-aminoethyl)sulfonyl)-3′-sulfamoyl-2′-(2H-tetrazol-5-yl)-[1,1′-biphenyl]-2-carboxamide]	1.563	1.563	3.125	12.5	4.00	15.3	34.2	2.84	3.125
NS(=O)(=O)c1c(S(=O)(=O)C2CNC2)ccc(-c2ccnc(N3CCNC3=O)c2)c1-c1nnn[nH]1 [Example 343, 6-(Azetidin-3-ylsulfonyl)-3-(2-(2-oxoimidazolidin-1-yl)pyridin-4-yl)-2-(1H-tetrazol-5-yl)benzenesulfonamide]	3.125	6.25	3.125	25	15.99	0.51	1.89	0.198	1.563
Nc1nnc(-c2cccc(-c3ccc(S(=O)(=O)C4CNC4)c(S(N)(=O)=O)c3-c3nnn[nH]3)c2)o1 [Example 344, 3′-(5-Amino-1,3,4-oxadiazol-2-yl)-4-(azetidin-3-ylsulfonyl)-2-(1H-tetrazol-5-yl)-[1,1′-biphenyl]-3-sulfonamide]	3.125	6.25	3.125	25	15.99	0.47	1.7	0.268	1.563
NCCS(=O)(=O)c1ccc(-c2cccc(-n3ccnc3)c2)c(-c2nnn[nH]2)c1S(N)(=O)=O [Example 345, 4-((2-Aminoethyl)sulfonyl)-3′-(1H-imidazol-1-yl)-2-(1H-tetrazol-5-yl)-[1,1′-biphenyl]-3-sulfonamide]	0.7813	3.125	1.563	25	32.00	1.96	0.857	0.434	0.7813
NCCS(=O)(=O)c1ccc(-c2cccc(-c3c[nH]c(N)n3)c2)c(-c2nnn[nH]2)c1S(N)(=O)=O [Example 346, 3′-(2-Amino-1H-imidazol-4-yl)-4-((2-aminoethyl)sulfonyl)-2-(1H-tetrazol-5-yl)-[1,1′-biphenyl]-3-sulfonamide]	0.3906	1.563	1.563	6.25	8.00	0.518	1.97	0.931	0.7813
NCCS(=O)(=O)c1ccc(-c2cccc3c2NC(=O)C3O)c(-c2nnn[nH]2)c1S(N)(=O)=O (centres unmarked) [Example 347, 6-((2-Aminoethyl)sulfonyl)-3-(3-hydroxy-2-oxoindolin-7-yl)-2-(1H-tetrazol-5-yl)benzenesulfonamide]	3.125	6.25	1.563	12.5	4.00	1.73	1.34	0.933	3.125
C[C@@H](N)CS(=O)(=O)c1ccc(-c2cccc3[nH]c(C(=O)O)nc23)c(-c2nn[nH]n2)c1S(N)(=O)=O [Example 348, Ammonium (R)-4-(4-((2-aminopropyl)sulfonyl)-3-sulfamoyl-2-(2H-tetrazol-5-yl)phenyl)-1H-benzo[d]imidazole-2-carboxylate]	3.125	6.25	3.125	25	8.00	0.163	0.847	0.478	3.125
Nc1nc2c(-c3ccc(S(=O)(=O)[C@@H]4CN[C@H](CO)C4)c(S(N)(=O)=O)c3-c3nn[nH]n3)cccc2s1 [Example 349, 3-(2-Aminobenzo[d]thiazol-4-yl)-6-(((3 S,5S)-5-(hydroxymethyl)pyrrolidin-3-yl)sulfonyl)-2-(2H-tetrazol-5-yl)benzenesulfonamide]	3.125	3.125	1.563	1.563	1.00	0.0659	0.22	0.452	1.563
Nc1nc2c(-c3ccc(S(=O)(=O)[C@@H]4CN[C@H](CO)C4)c(S(N)(=O)=O)c3-c3nn[nH]n3)cccc2[nH]1 [Example 350, 3-(2-Amino-1H-benzo[d]imidazol-4-yl)-6-(((3S,5S)-5-(hydroxymethyl)pyrrolidin-3-yl)sulfonyl)-2-(2H-tetrazol-5-yl)benzenesulfonamide]	0.7813	3.125	1.563	1.563	1.00	0.25	0.982	0.674	1.563
NC[C@H](CO)S(=O)(=O)c1ccc(-c2cccc3nc(N)[nH]c23)c(-c2nn[nH]n2)c1S(N)(=O)=O [Example 351, (R)-3-(2-amino-1H-benzo[d]imidazol-7-yl)-6-((1-amino-3-hydroxypropan-2-yl)sulfonyl)-2-(1H-tetrazol-5-yl)benzenesulfonamide]	0.7813	1.563	0.7813	0.7813	1.00	0.2	1.36	0.711	0.7813
NC[C@@H](O)CS(=O)(=O)c1ccc(-c2cccc3sc(N)nc23)c(-c2nn[nH]n2)c1S(N)(=O)=O [Example 352, (R)-6-((3-amino-2-hydroxypropyl)sulfonyl)-3-(2-aminobenzo[d]thiazol-4-yl)-2-(2H-tetrazol-5-yl) benzenesulfonamide]	0.7813	1.563	0.7813	0.3906		0.0658	0.145	0.255	0.7813
NC[C@H](O)CS(=O)(=O)c1ccc(-c2cccc3[nH]cnc23)c(-c2nn[nH]n2)c1S(N)(=O)=O [Example 353, (S)-6-((3-amino-2-hydroxypropyl)sulfonyl)-3-(1H-benzo[d]imidazol-4-yl)-2-(2H-tetrazol-5-yl) benzenesulfonamide]	1.563	3.125	1.563	0.7813	1.00	0.185	0.392	0.202	0.7813
NCCCS(=O)(=O)c1ccc(-c2cccc3[nH]cnc23)c(-c2nn[nH]n2)c1S(N)(=O)=O [Example 354, 6-((3-aminopropyl)sulfonyl)-3-(1H-benzo[d]imidazol-7-yl)-2-(1H-tetrazol-5-yl) benzenesulfonamide]	0.7813	1.563	0.7813	0.7813	1.00	0.226	0.275	0.162	0.7813
C[C@H](N)CS(=O)(=O)c1ccc(-c2cccc3[nH]cnc23)c(-c2nn[nH]n2)c1S(N)(=O)=O [Example 355]	1.563	3.125	1.563	3.125	2.00	0.165	0.327	0.165	1.563
